Source: patent publication US7314744B2, “Hyperthermostable protease gene” (Takara Bio Inc., priority 1995, dated 2008)
Square brackets hold non-standard residues; d marks the D form. Peptide text beside a SMILES is read from it. * marks the point of attachment. Sta = CC(C)C[C@H](N)[C@@H](O)CC(=O)O; Isovaleryl = CC(C)CC(=O)*

B1: TC-3: crude enzyme preparation of protease TCES (Thermococcus celer) obtained from Bacillus subtilis DB104/pSTC3 (protein)
chain: MKRLGAVVLALVLVGLLAGTALAAPVKPVVRNNAVQQKNYGLLTPGLFKKVQRMNWNQEVDTVIMFGSYGDRDRAVKVLRLMGAQVKYSYKIIPAVAVKIKARDLLLIAGMIDTGYFGNTRVSGIKFIQEDYKVQVDDATSVSQIGADTVWNSLGYDGSGVVVAIVDTGIDANHPDLKGKVIGWYDAVNGRSTPYDDQGHGTHVAGIVAGTGSVNSQYIGVAPGAKLVGVKVLGADGSGSVSTIIAGVDWVVQNKDKYGIRVINLSLGSSQSSDGTDSLSQAVNNAWDAGIVVCVAAGNSGPNTYTVGSPAAASKVITVGAVDSNDNIASFSSRGPTADGRLKPEVVAPGVDIIAPRASGTSMGTPINDYYTKASGTSMATPHVSGVGALILQAHPSWTPDKVKTALIETADIVAPKEIADIAYGAGRVNVYKAIKYDDYAKLTFTGSVADKGSATHTFDVSGATFVTATLYWDTGSSDIDLYLYDPNGNEVDYSYTAYYGFEKVGYYNPTAGTWTVKVVSYKGAANYQVDVVSDGSLSQSGGGNPNPNPNPNPTPTTDTQTFTGSVNDYWDTSDTFTMNVNSGATKITGDLTFDTSYNDLDLYLYDPNGNLVDRSTSSNSYEHVEYANPAPGTWTFLVYAYSTYGWADYQLKAVVYYG

Experiments:
[1] = tested on: enzyme preparation TCES (protease TCES); experiment: Effects of various reagents on enzyme preparation TCES; format: biochemical, Thermococcus celer; settings: for effect of reagent on activity of TCES, in words: 37° C., 30 minutes, 1 mM reagent; for enzyme activity of TCES after treatment with reagent, compared with control (no reagent): treated at 37° C. for 30 minutes, reagent final concentration 1 mM, control 100%
Description: (§1) The enzyme activity of the enzyme preparation TC-3 obtained in the present invention can be measured using as a substrate Suc-Leu-Leu-Val-Tyr-MCA (SEQ ID NO:43) (manufactured by Peptide Laboratory). That is, the enzyme preparation to be detected for the enzyme activity is appropriately diluted, to 20 μl of the solution is added 80 μl of a 0.1M sodium phosphate buffer (pH 7.0) containing 62.5 μM Suc-Leu-Leu-Val-Tyr-MCA (SEQ ID NO:43), followed by incubating at 75° C. for 30 minutes. After the reaction is stopped by the addition of 20 μl of 30% acetic acid, the fluorescent intensity is measured at the excitation wavelength of 355 nm and the fluorescence wavelength of 460 nm to quantitate an amount of the generated 7-amino-4-methylcoumarin, and the resulting value is compared with that obtained when incubating without the addition of the enzyme preparation, to investigate the enzyme activity.
(§2) The effects of various reagents on the enzyme preparations TCES and NAPS-1 obtained by the present invention were investigated. That is, the above enzyme preparations were treated at 37° C. for 30 minutes in the presence of the various reagents at the final concentration of 1 mM, and an aliquot thereof was taken to determine the enzyme activity by the method described in the above (2) to compare with that (control) when no reagent was added.

[2] = tested on: enzyme preparation NAPS-1 (protease PFUS); experiment: Effects of various reagents on enzyme preparation NAPS-1; format: biochemical, Pyrococcus furiosus; settings: for effect of reagent on activity of NAPS-1, in words: 37° C., 30 minutes, 1 mM reagent; for enzyme activity of NAPS-1 after treatment with reagent, compared with control (no reagent): treated at 37° C. for 30 minutes, reagent final concentration 1 mM, control 100%
Description: (§3) In addition, the enzyme activity of the enzyme preparations NP-1, PT-1, NAPS-1 and NAPS-LS can be photometrically measured using Suc-Ala-Ala-Pro-Phe-p-NA (SEQ ID NO:44) (manufactured by Sigma) as a substrate. That is, an enzyme preparation to be detected for the enzyme activity was appropriately diluted, to 50 μl of the solution was added 50 μl of a 0.1M potassium phosphate buffer (pH 7.0) containing Suc-Ala-Ala-Pro-Phe-p-NA (SEQ ID NO:44) (Suc-Ala-Ala-Pro-Phe-p-NA(SEQ ID NO:44) solution), followed by incubating at 95° C. for 30 minutes. After the reaction was stopped by ice-cooling, the absorbance at 405 nm was measured to quantitate an amount of the generated p-nitroaniline, and the resulting value was compared with that when incubating without the addition of the enzyme preparation, to investigate the enzyme activity. Upon this, a 0.2 mM solution of Suc-Ala-Ala-Pro-Phe-p-NA (SEQ ID NO:44) was used for the enzyme preparations NP-1 and PT-1 and a 1 mM solution was used for the enzyme preparations NAPS-1 and NAPS-1S.
as §2

Suc-Ala-Ala-Pro-Phe-p-NA = Suc-Ala-Ala-Pro-Phe-p-NA hydrolyzing activity (absorbance at 405 nm); format: biochemical; settings: pH 7.0 and 95° C., 30 minutes
Description: as §3, with “Upon this, a 0.2 mM solution of Suc-Ala-Ala-Pro-Phe-p-NA (SEQ ID NO:44) was used for the enzyme preparations NP-1 and PT-1 and a 1 mM solution was used for the enzyme preparations NAPS-1 and NAPS-1S.” left out
(§4) The activity of the enzyme preparations obtained in the present invention on the synthetic peptide substrates is confirmed by a method for measuring the enzyme activity described in the above (2). […] In addition, the activity of the enzyme preparations obtained in the present invention on gelatin can be detected by confirming the degradation of gelatin by an enzyme on the SDS-polyacrylamide gel. […]

[3] = Thermostability of enzyme preparation (residual activity after heat-treatment); format: physicochemical; settings: 80° C., 20 mM Tris-HCl pH 7.5, 3 hours
Description: The thermostability of the enzyme preparation TC-3 obtained by the present invention was investigated. That is, the enzyme preparation was incubated at 80° C. in 20 mM Tris-HCl, pH 7.5 for various periods of time, an appropriate amount thereof was taken to measure the enzyme activity by the method shown in the above (2), and the activity was compared with that when not heat-treated.
In addition, the thermostability of the enzyme preparation NP-1 obtained in the present invention was investigated. That is, the enzyme preparation was incubated at 95° C. in 20 mM Tris-HCl, pH 7.5 for various periods of time, an appropriate aliquot was taken to determine the enzyme activity by the method shown in the above (2), and the enzyme activity was compared with that when not heat-treated. […] This is considered to be because a protease produced as a precursor causes the self-catalytic activation during the heat-treatment.
In addition, the above enzyme preparation NP-1 activated by the heat-treatment was investigated for the thermostability. That is, the enzyme preparation NP-1 was activated by the heat-treatment at 95° C. for 30 minutes, incubated at 95° C. for various periods of time, and the activity was determined as described above to compare with that when not heat-treated. […]

casein = experiment: Casein degradation on casein-containing SDS-polyacrylamide gel; format: biochemical; settings: gel with 0.05% casein, 95° C.
Suc-Leu-Leu-Val-Tyr-MCA = Suc-Leu-Leu-Val-Tyr-MCA hydrolyzing activity (fluorescence); format: biochemical; settings: pH 7.0 and 75° C., 30 minutes
Description: as §1, §4

gelatin = experiment: Gelatin degradation on gelatin-containing SDS-polyacrylamide gel; format: biochemical; settings: gel with 0.05% gelatin, pH 7.0, 95° C., 3 hours
Source text: The activity of the enzyme preparations obtained in the present invention on the synthetic peptide substrates is confirmed by a method for measuring the enzyme activity described in the above (2). That is, the enzyme preparation TC-3 obtained in the present invention has the Suc-Leu-Leu-Val-Tyr-MCA (SEQ ID NO:43) hydrlyzing activity, and the enzyme preparations NP-1, PT-1, NAPS-1 and NAPS-1A have the Suc-Ala-Ala-Pro-Phe-p-NA (SEQ ID NO:44) hydrlyzing activity, respectively. […] In addition, the activity of the enzyme preparations obtained in the present invention on gelatin can be detected by confirming the degradation of gelatin by an enzyme on the SDS-polyacrylamide gel. That is, the enzyme preparation to be detected for the enzyme activity was appropriately diluted, to 10 μl of the sample solution was added 2.5 μl of a sample buffer (50 mM Tris-HCl, pH 7.5, 5% SDS, 5% 2-mercaptoethanol, 0.005% Bromophenol Blue. 50% glycerol), followed by treatment at 100° C. for 5 minutes and electrophoresis using 0.1% SDS-10% polyacrylamide gel containing 0.05% gelatin. […] The presence of the protease activity was detected by the fact that gelatin is hydrolyzed by a protease into peptides which are diffused out of the gel and, consequently, the relevant portion of the gel was not stained with Coomassie Brilliant Blue.

| Molecule | enzyme activity of TCES after treatment with reagent, compared with control (no reagent) [1] | effect of reagent on activity of NAPS-1, in words [2] | enzyme activity of NAPS-1 after treatment with reagent, compared with control (no reagent) [2] | also measured |
| --- | --- | --- | --- | --- |
| O=S(=O)(F)Cc1ccccc1 [PMSF, phenylmethanesulfonyl fluoride] | 8.1% | remarkably decreased activity | 0.1% | effect of reagent on activity of TCES, in words [1]: remarkably decreased activity |
| CC(C)C[C@H](NC(=O)[C@@H](NC(=O)N[C@@H](Cc1ccccc1)C(=O)O)[C@@H]1CCN=C(N)N1)C(=O)N[C@H](C=O)Cc1ccccc1 [Chymostatin] | 0% | remarkably decreased activity | 6.6% | effect of reagent on activity of TCES, in words [1]: remarkably decreased activity |
| CC(C)CC(=O)N[C@H](C(=O)N[C@H](C(=O)N[C@@H](CC(C)C)[C@@H](O)CC(=O)N[C@@H](C)C(=O)N[C@@H](CC(C)C)[C@@H](O)CC(=O)O)C(C)C)C(C)C [Pepstatin] (Isovaleryl-VV[Sta]A[Sta]-OH) | 105.2% | – | 100.7% | – |
| CCN1C(=O)C=CC1=O [N-ethylmaleimide] | 82.6% | – | 102.6% | – |
| O=C(O)CN(CCN(CC(=O)O)CC(=O)O)CC(=O)O [EDTA] | 103.5% | the decrease in the activity was observed | 36.1% | – |
| CC(=O)N[C@@H](CC(C)C)C(=O)N[C@@H](CC(C)C)C(=O)N[C@H](C=O)CCCNC(=N)N [Leupeptin] | 104.5% | – | 89.3% | – |
| B1 | – | – | – | Suc-Ala-Ala-Pro-Phe-p-NA hydrolyzing activity (Suc-Ala-Ala-Pro-Phe-p-NA): the activity to degrade the substrate was recognized; residual activity after heat-treatment [3]: not less than 90%; casein hydrolyzing activity (gel) (casein): had the casein hydrolyzing activity; Suc-Leu-Leu-Val-Tyr-MCA hydrolyzing activity (Suc-Leu-Leu-Val-Tyr-MCA): had the Suc-Leu-Leu-Val-Tyr-MCA (SEQ ID NO:43) hydrolyzing activity; gelatin hydrolyzing activity (gelatin): had the gelatin hydrolyzing activity |
